Literature values, collected in US20070009558A1, “Sugar-free storage-stable antihistaminic syrups” (priority 2004, published 2007).
Read-outs that look alike come from different tables or passages of the source.

Compound: Clc1ccc2c(c1)CCc1cccnc1C2=C1CCNCC1 [Desloratadine, 8-chloro-6,11-dihydro-11-(4-piperdinylidene)-5H-benzo[5,6]cyclohepta[1 ,2-b]pyridine]
- solubility (in ethanol): very soluble
- solubility (in propylene glycol): very soluble
- solubility (in water): slightly soluble
